Measurements: US20140105921A1, “Prodrugs of Peptide Epoxy Ketone Protease Inhibitors” (Onyx Therapeutics, Inc., priority 2012, published 2014)
Where two headings read alike, the source gives them in different places. Blank lines part the entries; values can stand above or below the molecule they belong to.

What was measured:
i20s = i20s (Homo sapiens, UniProt P20618+P28062); assay: Purified PI, IC50 against i20s; type: biochemical
c20s = c20s (Homo sapiens, UniProt P20618+P28074); assay: Purified PI, IC50 against c20s; type: biochemical
[1] = Conversion of Prodrugs by Human Liver S9; type: in vitro ADME
[2] = Buffer Conversion Rates of Prodrugs to Compound B; type: physicochemical
[3] = In vivo mouse PK of Compound A and PEG prodrugs; conditions: for [Cmpd A]: BLOQ = below level of quantitation
[4] = Table G, value marked *: did not converge, read-out: IC50 Slope i20s
[5] = Table G, value marked *: did not converge, read-out: IC50 Slope c20s
[6] = Table G, read-out: IC50 Slope i20s
[7] = Table G, read-out: IC50 Slope c20s
[8] = IC50 60 minute point i20s, Table H, 60 minute point
[9] = Table H, read-out: IC50 Slope i20s
[10] = IC50 60 minute point c20s, Table H, 60 minute point
[11] = Table H, read-out: IC50 Slope c20s

Compound: CC(C)C[C@H](NC(=O)[C@H](CCc1ccccc1)NC(=O)CN1CCOCC1)C(=O)N[C@@H](Cc1ccccc1)C(=O)N[C@@H](CC(C)C)C(=O)[C@](C)(O)COn1nnc2ccccc21
- IC50 (i20s; [4]): 2.82 µM
- IC50 (c20s; [5]): 2.47 µM

Compound: COCCOCCOCCOCCC(=O)N/N=C(/[C@H](CC(C)C)NC(=O)[C@H](Cc1ccccc1)NC(=O)[C@H](CC(C)C)NC(=O)[C@H](CCc1ccccc1)NC(=O)CN1CCOCC1)[C@@]1(C)CO1
- IC50 (i20s; [4]): 3.24 µM

Compound: COC[C@H](NC(=O)c1cnc(C)s1)C(=O)N[C@@H](COC)C(=O)N[C@@H](Cc1ccccc1)/C(=N/OC)[C@@]1(C)CO1
- IC50 60 minute point i20s (i20s; Table H, 60 minute point): inactive
- IC50 (c20s; IC50 60 minute point c20s, Table H, 60 minute point, value marked * (Table G: did not converge)): 2.56 µM

Compound: COC[C@H](NC(=O)c1cnc(C)s1)C(=O)N[C@@H](COC)C(=O)N[C@@H](Cc1ccccc1)C(=O)[C@](C)(O)COS(=O)(=O)C1CCOCC1 [compound 22]
- Buffer pH = 7.4 % Conversion @ 1 hour [2]: 9.8%

Compound: CC(C)C[C@H](NC(=O)[C@H](CCc1ccccc1)NC(=O)CN1CCOCC1)C(=O)N[C@@H](Cc1ccccc1)C(=O)N[C@@H](CC(C)C)/C(=N/OCc1ccccc1)[C@@]1(C)CO1
- IC50 (i20s; [6]): 2.18 µM
- IC50 (c20s; [7]): 0.539 µM

Compound: COC[C@H](NC(=O)c1cnc(C)s1)C(=O)N[C@@H](COC)C(=O)N[C@@H](Cc1ccccc1)C(=O)[C@](C)(O)COS(C)(=O)=O
- IC50 (i20s; [8]): 0.614 µM
- IC50 (i20s; [9]): 0.179 µM
- IC50 (c20s; [10]): 0.459 µM
- IC50 (c20s; [11]): 0.103 µM

Compound: CC(=O)OC[C@@](C)(O)C(=O)[C@H](CC(C)C)NC(=O)[C@H](Cc1ccccc1)NC(=O)[C@H](CC(C)C)NC(=O)[C@H](CCc1ccccc1)NC(=O)CN1CCOCC1
- IC50 (i20s; [6]): 8.19 µM
- IC50 (c20s; [5]): 2.44 µM

Compound: CO/N=C(/[C@H](CC(C)C)NC(=O)[C@H](Cc1ccccc1)NC(=O)[C@H](CC(C)C)NC(=O)[C@H](CCc1ccccc1)NC(=O)CN1CCOCC1)[C@@]1(C)CO1
- IC50 (c20s; [5]): 2.61 µM

Compound: COC[C@H](NC(=O)c1cnc(C)s1)C(=O)N[C@@H](COC)C(=O)N[C@@H](Cc1ccccc1)C(=O)[C@](C)(O)COC(=O)c1c(Cl)cccc1Cl
- IC50 60 minute point i20s (i20s; Table H, 60 minute point): inactive
- IC50 60 minute point c20s (c20s; Table H, 60 minute point): inactive

Compound: CC(C)C[C@H](NC(=O)[C@H](CCc1ccccc1)NC(=O)CN1CCOCC1)C(=O)N[C@@H](Cc1ccccc1)C(=O)N[C@@H](CC(C)C)C(=O)[C@](C)(O)COP(=O)(c1ccccc1)c1ccccc1
- IC50 (i20s; [4]): 2.55 µM
- IC50 (c20s; [7]): 2.67 µM

Compound: COC[C@H](NC(=O)c1cnc(C)s1)C(=O)N[C@@H](COC)C(=O)N[C@@H](Cc1ccccc1)C(=O)[C@](C)(O)COC(C)=O
- IC50 60 minute point i20s (i20s; Table H, 60 minute point): inactive
- IC50 60 minute point c20s (c20s; Table H, 60 minute point): inactive

Compound: CC(C)C[C@H](NC(=O)[C@H](CCc1ccccc1)NC(=O)CN1CCOCC1)C(=O)N[C@@H](Cc1ccccc1)C(=O)N[C@@H](CC(C)C)/C(=N/O)[C@@]1(C)CO1
- IC50 (i20s; [4]): 2.29 µM
- IC50 (c20s; [5]): 0.279 µM

Compound: COC[C@H](NC(=O)c1cnc(C)s1)C(=O)N[C@@H](COC)C(=O)N[C@@H](Cc1ccccc1)C(=O)[C@](C)(O)COS(=O)(=O)c1ccc(C)cc1
- IC50 (i20s; [8]): 0.637 µM
- IC50 (i20s; [9]): 0.252 µM
- IC50 (c20s; [10]): 0.748 µM
- IC50 (c20s; [11]): 0.141 µM

Compound: Cc1ccc(S(=O)(=O)OC[C@@](C)(O)C(=O)[C@H](CC(C)C)NC(=O)[C@H](Cc2ccccc2)NC(=O)[C@H](CC(C)C)NC(=O)[C@H](CCc2ccccc2)NC(=O)CN2CCOCC2)cc1
- IC50 (i20s; [6]): 0.316 µM
- IC50 (c20s; [7]): 0.0737 µM

Compound: COC[C@H](NC(=O)c1cnc(C)s1)C(=O)N[C@@H](COC)C(=O)N[C@@H](Cc1ccccc1)C(=O)[C@](C)(O)COS(=O)(=O)C1CCOCC1 [drawing 373]
- IC50 (i20s; Table H, value marked * (Table G: did not converge), read-out: IC50 Slope i20s): 0.278 µM
- IC50 (c20s; [11]): 0.193 µM

Compound: CC(C)C[C@H](NC(=O)[C@H](CCc1ccccc1)NC(=O)CN1CCOCC1)C(=O)N[C@@H](Cc1ccccc1)C(=O)N[C@@H](CC(C)C)C(=O)[C@](C)(O)CCl
- IC50 (i20s; [6]): 0.143 µM
- IC50 (c20s; [7]): 0.615 µM

Compound: CC(C)C[C@H](NC(=O)[C@H](CCc1ccccc1)NC(=O)CN1CCOCC1)C(=O)N[C@@H](Cc1ccccc1)C(=O)N[C@@H](CC(C)C)C(=O)[C@](C)(O)COC(=O)c1c(Cl)cccc1Cl
- IC50 (i20s; [6]): 0.66 µM

Compound: COC[C@H](NC(=O)c1cnc(C)s1)C(=O)N[C@@H](COC)C(=O)N[C@@H](Cc1ccccc1)C(=O)[C@](C)(O)COS(=O)(=O)Cc1ccccc1 [compound 23]
- Buffer pH = 7.4 % Conversion @ 1 hour [2]: 9.6%

Compound: COC[C@H](NC(=O)c1cnc(C)s1)C(=O)N[C@@H](COC)C(=O)N[C@@H](Cc1ccccc1)C(=O)[C@](C)(O)COS(=O)(=O)Cc1ccccc1 [drawing 374]
- IC50 (c20s; [11]): 0.0954 µM

Compound: COC[C@H](NC(=O)c1cnc(C)s1)C(=O)N[C@@H](COC)C(=O)N[C@@H](Cc1ccccc1)C(=O)[C@](C)(O)COP(=O)(c1ccccc1)c1ccccc1
- IC50 60 minute point i20s (i20s; Table H, 60 minute point): inactive
- IC50 60 minute point c20s (c20s; Table H, 60 minute point): inactive

Compound: CC(C)C[C@H](NC(=O)[C@H](CCc1ccccc1)NC(=O)CN1CCOCC1)C(=O)N[C@@H](Cc1ccccc1)C(=O)N[C@@H](CC(C)C)C(=O)[C@](C)(O)COS(C)(=O)=O
- IC50 (i20s; [6]): 0.0987 µM
- IC50 (c20s; [7]): 0.0377 µM

Compound: CC(=O)N/N=C(/[C@H](CC(C)C)NC(=O)[C@H](Cc1ccccc1)NC(=O)[C@H](CC(C)C)NC(=O)[C@H](CCc1ccccc1)NC(=O)CN1CCOCC1)[C@@]1(C)CO1
- IC50 (i20s; [4]): 2.19 µM
- IC50 (c20s; [7]): 0.678 µM

Compound: CC(C)C[C@H](NC(=O)[C@H](CCc1ccccc1)NC(=O)C[N+]1(COC(=O)C(C)(C)C)CCOCC1)C(=O)N[C@@H](Cc1ccccc1)C(=O)N[C@@H](CC(C)C)C(=O)[C@@]1(C)CO1
- IC50 (i20s; [6]): 0.0498 µM
- IC50 (c20s; [7]): 0.00891 µM

Compound: CC(C)C[C@H](NC(=O)[C@H](CCc1ccccc1)NC(=O)CN1CCOCC1)C(=O)N[C@@H](Cc1ccccc1)C(=O)N[C@@H](CC(C)C)C(=O)[C@@]1(C)CO1 [Cmpd A, (S)-4-methyl-N—((S)-1-(((S)-4-methyl-1-((R)-2-methyloxiran-2-yl)-1-oxopentan-2-yl)amino)-1-oxo-3-phenylpropan-2-yl)-2-((S)-2-(2-morpholinoacetamido)-4-phenylbutanamido)pentanamide]
- [Cmpd A] ([3]; Time 4 hr): BLOQ
- [Cmpd A] ([3]; Time 6 hr): BLOQ
- [Cmpd A] ([3]; Time 24 hr): BLOQ
- concentration at 1 hr ([3]; plasma, Time 1 hr, read-out: [Cmpd A]): 8 nM

Continued, values first:

- Human Liver S9 % Conversion @ 1 hour [1]: 28%
Compound: COC[C@H](NC(=O)c1cnc(C)s1)C(=O)N[C@@H](COC)C(=O)N[C@@H](Cc1ccccc1)C(=O)[C@@](C)(CI)OC(=O)OCc1ccc(OC(C)=O)cc1 [20-22]

- Human Liver S9 % Conversion @ 1 hour [1]: 3%
Compound: COC[C@H](NC(=O)c1cnc(C)s1)C(=O)N[C@@H](COC)C(=O)N[C@@H](Cc1ccccc1)C(=O)[C@@](C)(CI)OC(=O)CCCCSC(C)=O [20-10]

- Human Liver S9 % Conversion @ 1 hour [1]: 24%
Compound: CCOC(=O)C(=O)O[C@](C)(CI)C(=O)[C@H](Cc1ccccc1)NC(=O)[C@H](COC)NC(=O)[C@H](COC)NC(=O)c1cnc(C)s1 [20-16]

- Human Liver S9 % Conversion @ 1 hour [1]: 1%
Compound: CCOC(=O)CCC(=O)O[C@](C)(CI)C(=O)[C@H](Cc1ccccc1)NC(=O)[C@H](COC)NC(=O)[C@H](COC)NC(=O)c1cnc(C)s1 [20-17]

- Buffer pH = 7.4 % Conversion @ 1 hour [2]: 5.7%
Compound: COC[C@H](NC(=O)c1cnc(C)s1)C(=O)N[C@@H](COC)C(=O)N[C@@H](Cc1ccccc1)C(=O)[C@](C)(O)COS(=O)(=O)CC(F)F [20-6]

- Human Liver S9 % Conversion @ 1 hour [1]: 32%
Compound: COC[C@H](NC(=O)c1cnc(C)s1)C(=O)N[C@@H](COC)C(=O)N[C@@H](Cc1ccccc1)C(=O)[C@@](C)(CI)OC(=O)Oc1ccccc1 [20-26]

- Human Liver S9 % Conversion @ 1 hour [1]: 7%
Compound: COC[C@H](NC(=O)c1cnc(C)s1)C(=O)N[C@@H](COC)C(=O)N[C@@H](Cc1ccccc1)C(=O)[C@@](C)(CI)OC(=O)COc1ccccc1 [20-19]

- Buffer pH = 7.4 % Conversion @ 1 hour [2]: 4.2%
Compound: CCCCS(=O)(=O)OC[C@@](C)(O)C(=O)[C@H](Cc1ccccc1)NC(=O)[C@H](COC)NC(=O)[C@H](COC)NC(=O)c1cnc(C)s1 [20-7]

- Human Liver S9 % Conversion @ 1 hour [1]: 22%
Compound: COC[C@H](NC(=O)c1cnc(C)s1)C(=O)N[C@@H](COC)C(=O)N[C@@H](Cc1ccccc1)C(=O)[C@@](C)(CI)OC(=O)CCl [20-23]

- Human Liver S9 % Conversion @ 1 hour [1]: 30%
Compound: COC[C@H](NC(=O)c1cnc(C)s1)C(=O)N[C@@H](COC)C(=O)N[C@@H](Cc1ccccc1)C(=O)[C@@](C)(CI)OC(=O)OCc1oc(=O)oc1C [20-15]

- Human Liver S9 % Conversion @ 1 hour [1]: 29%
Compound: COC[C@H](NC(=O)c1cnc(C)s1)C(=O)N[C@@H](COC)C(=O)N[C@@H](Cc1ccccc1)C(=O)[C@@](C)(CI)OC=O [20-24]

- Human Liver S9 % Conversion @ 1 hour [1]: 11%
Compound: COC[C@H](NC(=O)c1cnc(C)s1)C(=O)N[C@@H](COC)C(=O)N[C@@H](Cc1ccccc1)C(=O)[C@@](C)(CI)OC(=O)CCCOC(C)=O [20-13]

- Buffer pH = 7.4 % Conversion @ 1 hour [2]: 0%
Compound: COC[C@H](NC(=O)c1cnc(C)s1)C(=O)N[C@@H](COC)C(=O)N[C@@H](Cc1ccccc1)C(=O)[C@](C)(O)CCl [20-2]

- Buffer pH = 7.4 % Conversion @ 1 hour [2]: 23%
Compound: COC[C@H](NC(=O)c1cnc(C)s1)C(=O)N[C@@H](COC)C(=O)N[C@@H](Cc1ccccc1)C(=O)[C@](C)(O)CBr [20-3]

- Buffer pH = 7.4 % Conversion @ 1 hour [2]: 24%
Compound: COC[C@H](NC(=O)c1cnc(C)s1)C(=O)N[C@@H](COC)C(=O)N[C@@H](Cc1ccccc1)C(=O)[C@](C)(O)CI [20-1]

- Human Liver S9 % Conversion @ 1 hour [1]: 14%
Compound: CCOC(=O)O[C@](C)(CI)C(=O)[C@H](Cc1ccccc1)NC(=O)[C@H](COC)NC(=O)[C@H](COC)NC(=O)c1cnc(C)s1 [20-25]
